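Growth conditions: 96-well plates. Treatment: test compound, 48 hours, 5 concentrations. Analysis: linear interpolation between bracketing concentrations; unreached endpoints set to highest concentration. TGI: total growth inhibition.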
What was measured:
Assay in all cases: NCI tumour cell line growth inhibition, 48 h
T-47D breast = test system: T-47D breast
SR leukemia = test system: SR leukemia
SF-295 CNS = test system: SF-295 CNS
MCF7 breast = test system: MCF7 breast
IGROV1 ovarian = test system: IGROV1 ovarian
SK-MEL-28 melanoma = test system: SK-MEL-28 melanoma
HOP-62 NSCLC = test system: HOP-62 NSCLC
ACHN renal = test system: ACHN renal
CAKI-1 renal = test system: CAKI-1 renal
NCI-H226 lung = test system: NCI-H226 lung
SNB-75 CNS = test system: SNB-75 CNS
SK-OV-3 ovarian = test system: SK-OV-3 ovarian
PC-3 prostate = test system: PC-3 prostate
HS 578T breast = test system: HS 578T breast
NCI-H522 lung = test system: NCI-H522 lung
NCI-H23 lung = test system: NCI-H23 lung
SNB-19 CNS = test system: SNB-19 CNS
SN12C renal = test system: SN12C renal
HCT-15 colon = test system: HCT-15 colon
UO-31 renal = test system: UO-31 renal
SW-620 colon = test system: SW-620 colon
K-562 leukemia = test system: K-562 leukemia
UACC-62 melanoma = test system: UACC-62 melanoma
NCI/ADR-RES ovarian = test system: NCI/ADR-RES ovarian
HCC-2998 colon = test system: HCC-2998 colon
U251 CNS = test system: U251 CNS
SF-268 CNS = test system: SF-268 CNS
SK-MEL-2 melanoma = test system: SK-MEL-2 melanoma
MDA-MB-231 breast = test system: MDA-MB-231 breast
A498 renal = test system: A498 renal
OVCAR-3 ovarian = test system: OVCAR-3 ovarian
A549 NSCLC = test system: A549 NSCLC
RPMI-8226 leukemia = test system: RPMI-8226 leukemia
MOLT-4 leukemia = test system: MOLT-4 leukemia
M14 melanoma = test system: M14 melanoma
SF-539 CNS = test system: SF-539 CNS
HL-60(TB) leukemia = test system: HL-60(TB) leukemia
OVCAR-8 ovarian = test system: OVCAR-8 ovarian
KM12 colon = test system: KM12 colon
BT-549 breast = test system: BT-549 breast
MDA-N = test system: MDA-N
DU-145 prostate = test system: DU-145 prostate
LOX IMVI melanoma = test system: LOX IMVI melanoma
NCI-H460 lung = test system: NCI-H460 lung
TK-10 renal = test system: TK-10 renal
UACC-257 melanoma = test system: UACC-257 melanoma
COLO 205 colon = test system: COLO 205 colon
OVCAR-5 ovarian = test system: OVCAR-5 ovarian
MDA-MB-435 = test system: MDA-MB-435
OVCAR-4 ovarian = test system: OVCAR-4 ovarian
786-0 renal = test system: 786-0 renal
CCRF-CEM leukemia = test system: CCRF-CEM leukemia
HT29 colon = test system: HT29 colon
RXF 393 renal = test system: RXF 393 renal
HCT-116 colon = test system: HCT-116 colon
HOP-92 NSCLC = test system: HOP-92 NSCLC
SK-MEL-5 melanoma = test system: SK-MEL-5 melanoma
EKVX NSCLC = test system: EKVX NSCLC
MALME-3M melanoma = test system: MALME-3M melanoma

## OC1(c2ccc(Cl)cc2)c2ccccc2-c2nc3ccccc3n21 (stereo not drawn)
T-47D breast
  TGI: > 100 µM
SR leukemia
  TGI: > 100 µM
SF-295 CNS
  TGI: > 100 µM
MCF7 breast
  TGI: > 100 µM
IGROV1 ovarian
  TGI: > 100 µM
SK-MEL-28 melanoma
  TGI: > 100 µM
HOP-62 NSCLC
  TGI: > 100 µM
ACHN renal
  TGI: > 100 µM
CAKI-1 renal
  TGI: > 100 µM
NCI-H226 lung
  TGI: > 100 µM
SNB-75 CNS
  TGI: > 100 µM
SK-OV-3 ovarian
  TGI: > 100 µM
PC-3 prostate
  TGI: > 100 µM
HS 578T breast
  TGI: > 100 µM
NCI-H522 lung
  TGI: > 100 µM
NCI-H23 lung
  TGI: > 100 µM
SNB-19 CNS
  TGI: 97.3 µM
SN12C renal
  TGI: > 100 µM
HCT-15 colon
  TGI: > 100 µM
UO-31 renal
  TGI: > 100 µM
SW-620 colon
  TGI: > 100 µM
K-562 leukemia
  TGI: > 100 µM
UACC-62 melanoma
  TGI: > 100 µM
NCI/ADR-RES ovarian
  TGI: > 100 µM
HCC-2998 colon
  TGI: > 100 µM
U251 CNS
  TGI: > 100 µM
SF-268 CNS
  TGI: > 100 µM
SK-MEL-2 melanoma
  TGI: > 100 µM
MDA-MB-231 breast
  TGI: > 100 µM
A498 renal
  TGI: > 100 µM
OVCAR-3 ovarian
  TGI: > 100 µM
A549 NSCLC
  TGI: > 100 µM
RPMI-8226 leukemia
  TGI: > 100 µM
MOLT-4 leukemia
  TGI: > 100 µM
M14 melanoma
  TGI: > 100 µM
SF-539 CNS
  TGI: > 100 µM
HL-60(TB) leukemia
  TGI: > 100 µM
OVCAR-8 ovarian
  TGI: > 100 µM
KM12 colon
  TGI: > 100 µM
BT-549 breast
  TGI: > 100 µM
MDA-N
  TGI: > 100 µM
DU-145 prostate
  TGI: > 100 µM
LOX IMVI melanoma
  TGI: > 100 µM
NCI-H460 lung
  TGI: > 100 µM
TK-10 renal
  TGI: > 100 µM
UACC-257 melanoma
  TGI: > 100 µM
COLO 205 colon
  TGI: > 100 µM
OVCAR-5 ovarian
  TGI: > 100 µM
MDA-MB-435
  TGI: > 100 µM
OVCAR-4 ovarian
  TGI: > 100 µM
786-0 renal
  TGI: > 100 µM
CCRF-CEM leukemia
  TGI: > 100 µM
HT29 colon
  TGI: > 100 µM
RXF 393 renal
  TGI: 55 µM
HCT-116 colon
  TGI: > 100 µM
HOP-92 NSCLC
  TGI: > 100 µM
SK-MEL-5 melanoma
  TGI: > 100 µM
EKVX NSCLC
  TGI: > 100 µM

## CC1(C)O[C@@H]2C[C@H]3[C@@H]4C[C@H](F)C5=CC(=O)C=C[C@]5(C)[C@@]4(F)[C@@H](O)C[C@]3(C)[C@]2(C(=O)CO)O1
T-47D breast
  TGI: > 100 µM
SR leukemia
  TGI: > 100 µM
SF-295 CNS
  TGI: > 100 µM
MCF7 breast
  TGI: > 100 µM
IGROV1 ovarian
  TGI: > 100 µM
SK-MEL-28 melanoma
  TGI: > 100 µM
HOP-62 NSCLC
  TGI: > 100 µM
ACHN renal
  TGI: > 100 µM
CAKI-1 renal
  TGI: > 100 µM
NCI-H226 lung
  TGI: > 100 µM
SNB-75 CNS
  TGI: > 100 µM
SK-OV-3 ovarian
  TGI: > 100 µM
PC-3 prostate
  TGI: > 100 µM
HS 578T breast
  TGI: > 100 µM
NCI-H522 lung
  TGI: > 100 µM
NCI-H23 lung
  TGI: > 100 µM
SNB-19 CNS
  TGI: > 100 µM
SN12C renal
  TGI: > 100 µM
HCT-15 colon
  TGI: > 100 µM
UO-31 renal
  TGI: > 100 µM
SW-620 colon
  TGI: > 100 µM
K-562 leukemia
  TGI: > 100 µM
UACC-62 melanoma
  TGI: > 100 µM
NCI/ADR-RES ovarian
  TGI: > 100 µM
HCC-2998 colon
  TGI: > 100 µM
U251 CNS
  TGI: > 100 µM
SF-268 CNS
  TGI: > 100 µM
SK-MEL-2 melanoma
  TGI: > 100 µM
MALME-3M melanoma
  TGI: > 100 µM
MDA-MB-231 breast
  TGI: > 100 µM
A498 renal
  TGI: > 100 µM
OVCAR-3 ovarian
  TGI: > 100 µM
A549 NSCLC
  TGI: > 100 µM
RPMI-8226 leukemia
  TGI: > 100 µM
MOLT-4 leukemia
  TGI: > 100 µM
M14 melanoma
  TGI: > 100 µM
SF-539 CNS
  TGI: > 100 µM
HL-60(TB) leukemia
  TGI: > 100 µM
OVCAR-8 ovarian
  TGI: > 100 µM
KM12 colon
  TGI: > 100 µM
BT-549 breast
  TGI: > 100 µM
MDA-N
  TGI: > 100 µM
DU-145 prostate
  TGI: > 100 µM
LOX IMVI melanoma
  TGI: > 100 µM
NCI-H460 lung
  TGI: > 100 µM
TK-10 renal
  TGI: > 100 µM
UACC-257 melanoma
  TGI: > 100 µM
COLO 205 colon
  TGI: > 100 µM
OVCAR-5 ovarian
  TGI: > 100 µM
MDA-MB-435
  TGI: > 100 µM
OVCAR-4 ovarian
  TGI: > 100 µM
786-0 renal
  TGI: > 100 µM
CCRF-CEM leukemia
  TGI: > 100 µM
HT29 colon
  TGI: > 100 µM
RXF 393 renal
  TGI: > 100 µM
HCT-116 colon
  TGI: > 100 µM
HOP-92 NSCLC
  TGI: > 100 µM
SK-MEL-5 melanoma
  TGI: > 100 µM
EKVX NSCLC
  TGI: > 100 µM

## CC(C)=CC(=O)c1[nH]c2ccccc2c1CC(=O)NCCc1cncn1C
T-47D breast
  TGI: > 100 µM
SR leukemia
  TGI: 68 µM
SF-295 CNS
  TGI: > 100 µM
MCF7 breast
  TGI: > 100 µM
IGROV1 ovarian
  TGI: > 100 µM
SK-MEL-28 melanoma
  TGI: > 100 µM
ACHN renal
  TGI: > 100 µM
CAKI-1 renal
  TGI: > 100 µM
NCI-H226 lung
  TGI: > 100 µM
SNB-75 CNS
  TGI: > 100 µM
SK-OV-3 ovarian
  TGI: > 100 µM
PC-3 prostate
  TGI: > 100 µM
HS 578T breast
  TGI: > 100 µM
NCI-H522 lung
  TGI: 84.6 µM
NCI-H23 lung
  TGI: > 100 µM
SNB-19 CNS
  TGI: > 100 µM
SN12C renal
  TGI: > 100 µM
HCT-15 colon
  TGI: > 100 µM
UO-31 renal
  TGI: 47.6 µM
SW-620 colon
  TGI: > 100 µM
K-562 leukemia
  TGI: > 100 µM
UACC-62 melanoma
  TGI: > 100 µM
NCI/ADR-RES ovarian
  TGI: > 100 µM
HCC-2998 colon
  TGI: 81.5 µM
U251 CNS
  TGI: > 100 µM
SF-268 CNS
  TGI: > 100 µM
SK-MEL-2 melanoma
  TGI: > 100 µM
MALME-3M melanoma
  TGI: > 100 µM
MDA-MB-231 breast
  TGI: > 100 µM
A498 renal
  TGI: 91.9 µM
OVCAR-3 ovarian
  TGI: > 100 µM
A549 NSCLC
  TGI: > 100 µM
MOLT-4 leukemia
  TGI: > 100 µM
M14 melanoma
  TGI: > 100 µM
SF-539 CNS
  TGI: > 100 µM
OVCAR-8 ovarian
  TGI: > 100 µM
KM12 colon
  TGI: > 100 µM
BT-549 breast
  TGI: > 100 µM
MDA-N
  TGI: > 100 µM
DU-145 prostate
  TGI: > 100 µM
LOX IMVI melanoma
  TGI: > 100 µM
NCI-H460 lung
  TGI: > 100 µM
TK-10 renal
  TGI: > 100 µM
UACC-257 melanoma
  TGI: > 100 µM
COLO 205 colon
  TGI: 79.6 µM
OVCAR-5 ovarian
  TGI: > 100 µM
MDA-MB-435
  TGI: > 100 µM
OVCAR-4 ovarian
  TGI: > 100 µM
786-0 renal
  TGI: > 100 µM
CCRF-CEM leukemia
  TGI: > 100 µM
HT29 colon
  TGI: > 100 µM
RXF 393 renal
  TGI: 83.4 µM
HCT-116 colon
  TGI: > 100 µM
HOP-92 NSCLC
  TGI: > 100 µM
SK-MEL-5 melanoma
  TGI: > 100 µM
EKVX NSCLC
  TGI: 83.4 µM
